Assay results taken from patent publication US10633570B2, “Anti-ice nucleation activator” (THE SCHOOL CORPORATION KANSAI UNIVERSITY, priority 2015, dated 2020).

Experiments:
Assay type in all cases: physicochemical
[1] = Anti-ice nucleation active performance (supercooling acceleration), droplet-freezing method of Vali, with silver iodide; conditions: 100 μL mixed with 900 μL silver iodide 1.0 mg/mL, average of three tests; for Anti-ice nucleation activity level (ΔT50 = BlankT50 − SampleT50): purine base aqueous solution 1.0 mg/mL, cooling 1.0° C./min
Method: Nine hundred microliters of an aqueous solution was prepared by dissolving silver iodide (produced by Wako Pure Chemical Industries, Ltd.) in ultra-pure water to a silver iodide concentration of 1.0 mg/mL.
(§1) A blank sample was prepared by mixing 100 μL of ultra-pure water with 900 μL of the aqueous solution in which silver iodide was dissolved.
(§2) The anti-ice nucleation active performance (supercooling acceleration performance) was measured by using the droplet-freezing method of Vali. More specifically, in accordance with the droplet-freezing method of Vali (FIG. 3), an aluminum film was placed on the copper plate of a cold plate chiller (CoolAce CCA-1000, Eyela), and the film was coated with a silicone oil suspension diluted with acetone and chloroform (a solution of acetone:chloroform=1:2). Then, each sample for evaluation or the blank sample was dropped (10 μL each) on 30 points of the surface, the temperature was decreased at a rate of 1.0° C./min, and the temperature at which 50% of the 30 droplets were frozen was considered to be T50.
(§3) The droplet-freezing temperature of each sample was referred to as SampleT50, and the droplet-freezing temperature of the blank sample was referred to as BlankT50. Then, the anti-ice nucleation activity level ΔT50 (° C.) was calculated by the following formula: Formula: ΔT50 (° C.)=BlankT50−SampleT50
Nine hundred microliters of an aqueous solution was prepared by dissolving silver iodide in ultra-pure water to a silver iodide concentration of 1.0 mg/mL.
as §1
(§4) The results are average values of the results of the test performed three times.
as §1, §4

[2] = system: Pseudomonas fluorescens; assay: Anti-ice nucleation active performance, droplet-freezing method of Vali, with Pseudomonas fluorescens as ice nucleation active substance; conditions: Example 1 solution (1.0 mg/mL); Pseudomonas fluorescens in place of silver iodide
Method: The anti-ice nucleation active performance (supercooling acceleration performance) was measured by using the droplet-freezing method of Vali. More specifically, in accordance with the droplet-freezing method of Vali (FIG. 3), an aluminum film was placed on the copper plate of a cold plate chiller (CoolAce CCA-1000, Eyela), and the film was coated with a silicone oil suspension diluted with acetone and chloroform (a solution of acetone:chloroform=1:2). […]
as §3
A sample for evaluation of Example 1 was prepared in a manner similar to that described in Test Example 1, except that Pseudomonas fluorescens, which is the Pseudomonas bacterium, was used in place of silver iodide, which is an ice nucleation active substance. The anti-ice nucleation active performance (supercooling acceleration performance) was measured by using a test method similar to that described in Test Example 1.

[3] = Anti-ice nucleation activity test with respect to biological material (beef liver), droplet-freezing method of Vali; conditions: final concentration 0.1 mg/mL, 10 μL dropped on 1 mm x 1 mm x 1 mm beef liver; blank ultra-pure water; average of three tests
Method: as §2
as §3, with “C.)=BlankT50−SampleT50 […]” for “C.)=BlankT50−SampleT50”
The anti-ice nucleation active performance (supercooling acceleration performance) was measured by using a method similar to the droplet-freezing method of Vali described in Test Example 1. […]

[4] = adenine concentration series 0.1-6.0 (mM) per Example
[5] = polydeoxyadenylic acid with 6, 9 or 12 adenine bases, 1.0 mg/mL in TE buffer

**Q.** For Nc1ncnc2nc[nH]c12 [Example 8, adenine], which “Anti-ice nucleation activity level (ΔT50)” value [1, 4] is on record?
**A.** 1.7 °C

**Q.** For Nc1ncnc2nc[nH]c12 [Example 13, adenine], which “Anti-ice nucleation activity level (ΔT50)” value [1, 4] is on record?
**A.** 6.7 °C

**Q.** For Nc1ncnc2nc[nH]c12 [Example 12, adenine], which “Anti-ice nucleation activity level (ΔT50)” value [1, 4] is on record?
**A.** 7.8 °C

**Q.** With Nc1ncnc2nc[nH]c12 [Example 9, adenine] as the compound, how does the “Anti-ice nucleation activity level (ΔT50)” value [1, 4] read?
**A.** 2.3 °C

**Q.** Which “Anti-ice nucleation activity level (ΔT50)” value [1, 4] does the source give for Nc1ncnc2nc[nH]c12 [Example 11, adenine] here?
**A.** 4.9 °C

**Q.** For Nc1ncnc2nc[nH]c12 [Example 14, adenine], which “Anti-ice nucleation activity level (ΔT50)” value [1, 4] is on record?
**A.** 7.2 °C

**Q.** For O=c1[nH]cnc2nc[nH]c12 [Example 3, Hypoxanthine], which “Anti-ice nucleation activity level (ΔT50 = BlankT50 − SampleT50)” value [1] is on record?
**A.** 2.1 °C

**Q.** Which “Anti-ice nucleation activity level (ΔT50 = BlankT50 − SampleT50)” value [1] does the source give for Cn1c(=O)c2[nH]cnc2n(C)c1=O [Example 7, Theophylline] here?
**A.** 2.0 °C

**Q.** For Nc1nc2nc[nH]c2c(=O)[nH]1 [Example 2, Guanine], which “Anti-ice nucleation activity level (ΔT50 = BlankT50 − SampleT50)” value [1] is on record?
**A.** 1.0 °C

**Q.** Which “Anti-ice nucleation activity level (ΔT50)” value [1, 5] does the source give for polydeoxyadenylic acid [Example 17] here?
**A.** 1.60 °C

**Q.** With O=c1[nH]c(=O)c2[nH]c(=O)[nH]c2[nH]1 [Example 6, Uric acid] as the compound, how does the “Anti-ice nucleation activity level (ΔT50 = BlankT50 − SampleT50)” value [1] read?
**A.** 1.8 °C

**Q.** With Nc1ncnc2nc[nH]c12 [Example 10, adenine] as the compound, how does the “Anti-ice nucleation activity level (ΔT50)” value [1, 4] read?
**A.** 4.3 °C

**Q.** With polydeoxyadenylic acid [Example 16] as the compound, how does the “Anti-ice nucleation activity level (ΔT50)” value [1, 5] read?
**A.** 1.43 °C

**Q.** What does the source list for Nc1ncnc2nc[nH]c12 [Example 1, adenine]?
**A.** Anti-ice nucleation activity level (ΔT50) [1, 4]: 9.2 °C; Anti-ice nucleation activity level (ΔT50 = BlankT50 − SampleT50) [1]: 9.2 °C; Anti-ice nucleation active performance (ΔT50) [2]: 1.0 °C; Anti-ice nucleation activity level with respect to beef liver [3]: 0.9 °C

**Q.** For Cn1c(=O)c2c(ncn2C)n(C)c1=O [Example 5, Caffeine], which “Anti-ice nucleation activity level (ΔT50 = BlankT50 − SampleT50)” value [1] is on record?
**A.** 1.3 °C

**Q.** And the “Anti-ice nucleation activity level with respect to beef liver” value [3]?
**A.** 0.7 °C

**Q.** With Cn1cnc2c1c(=O)[nH]c(=O)n2C [Example 4, Theobromine] as the compound, how does the “Anti-ice nucleation activity level (ΔT50 = BlankT50 − SampleT50)” value [1] read?
**A.** 1.2 °C

**Q.** For polydeoxyadenylic acid [Example 15], which “Anti-ice nucleation activity level (ΔT50)” value [1, 5] is on record?
**A.** 1.26 °C
